Among the test systems are DU-145 prostate; HCT-116 colon; K-562 leukemia; RPMI-8226 leukemia; SK-MEL-5 melanoma; SK-OV-3 ovarian; SN12C renal; UO-31 renal; HOP-92 NSCLC; MALME-3M melanoma.
What all share (assay): NCI anticancer screen, dose series, 48 h

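Protocol summary: plate cells (96-well), add compound at 5 concentrations, incubate 48 h, interpolate endpoints linearly. At the GI50, growth is halved. Definition used: TGI = concentration required for complete inhibition of growth.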

In the case of `O=Nc1c(O)ccc2ccccc12`, the GI50 is 3.5 µM in the assay on DU-145 prostate; 2.25 µM in the assay on HCT-116 colon; 3.49 µM in the assay with K-562 leukemia; 2.64 µM in the assay on RPMI-8226 leukemia; 1.46 µM in the assay on SK-MEL-5 melanoma; 15.3 µM in the assay on SK-OV-3 ovarian. Further, the GI50 with SN12C renal is 1.75 µM; in the assay on UO-31 renal it was 1.1 µM. Further, the TGI with DU-145 prostate came to 10.5 µM; in the assay on HCT-116 colon it was 5.87 µM; in the assay with K-562 leukemia, 16.8 µM; in the assay on RPMI-8226 leukemia it was 7.21 µM; with SK-MEL-5 melanoma, 2.85 µM; in the assay with SK-OV-3 ovarian, 28.9 µM. The TGI was 3.4 µM in the assay on SN12C renal and 4.79 µM in the assay on UO-31 renal.
Take `O=C1c2ccccc2C(=O)N1c1ccc(OCCN2CCCCC2)cc1`: the TGI in the assay on DU-145 prostate, with HCT-116 colon, with HOP-92 NSCLC, in the assay on K-562 leukemia, in the assay with MALME-3M melanoma and in the assay with RPMI-8226 leukemia was over 100 µM in each case. Moreover, the TGI with SK-MEL-5 melanoma, in the assay with SK-OV-3 ovarian and in the assay on SN12C renal was over 100 µM throughout.
For `COc1ccc(C(=O)C=C2NCCN2)cc1`, the TGI in the assay on HCT-116 colon, in the assay on HOP-92 NSCLC, with K-562 leukemia, in the assay with MALME-3M melanoma, with RPMI-8226 leukemia and in the assay on SK-MEL-5 melanoma was over 100 µM throughout. Also, the TGI in the assay with SK-OV-3 ovarian, in the assay with SN12C renal and in the assay with UO-31 renal was over 100 µM throughout.
For the molecule `COc1ccc(C2S/C(=C\c3ccc(OC)cc3OC)C(=O)N2NC(=O)Cc2ccccc2)cc1` (stereo not drawn), the TGI in the assay with HCT-116 colon, in the assay on HOP-92 NSCLC, in the assay with K-562 leukemia, with MALME-3M melanoma, with RPMI-8226 leukemia and in the assay on SK-MEL-5 melanoma was over 100 µM throughout. Further, the TGI in the assay with SK-OV-3 ovarian, in the assay on SN12C renal and in the assay with UO-31 renal was over 100 µM each time.
In the case of `CCOC(=O)C(C[Si](C)(C)C)P(=O)(OCC)OCC` (stereo not drawn), the TGI in the assay with HCT-116 colon, with HOP-92 NSCLC, in the assay on K-562 leukemia, with MALME-3M melanoma, in the assay on RPMI-8226 leukemia and with SK-MEL-5 melanoma was over 100 µM in each case. In addition, the TGI in the assay on SK-OV-3 ovarian, in the assay with SN12C renal and in the assay with UO-31 renal was over 100 µM each time.
For the molecule `CC(=O)Nc1ccc(-c2nnc(SCC(=O)Nc3ccc(C)cc3)o2)cc1`, the TGI with HCT-116 colon was 29.1 µM; with HOP-92 NSCLC it was 33.4 µM; with K-562 leukemia it was over 100 µM; in the assay on MALME-3M melanoma, 30.8 µM; in the assay on RPMI-8226 leukemia, 74.7 µM; in the assay on SK-MEL-5 melanoma, 27.8 µM. Moreover, the values for the TGI with SK-OV-3 ovarian, with SN12C renal and with UO-31 renal were over 100 µM, 30 µM and over 100 µM, respectively.
Take `Cn1ccnc1C(=O)/C=C/c1ccc(C(=O)Nc2nc3ccccc3[nH]2)cc1`: the GI50 in the assay on DU-145 prostate was 0.92 µM; with HCT-116 colon, 1.5 µM; with HOP-92 NSCLC, 6.28 µM; in the assay with K-562 leukemia it was 0.829 µM; in the assay on MALME-3M melanoma, over 25 µM; with RPMI-8226 leukemia, 0.81 µM. Also, the GI50 was 18.4 µM in the assay on SK-MEL-5 melanoma, 9.93 µM in the assay on SN12C renal and 2.07 µM in the assay on UO-31 renal. Also, the TGI in the assay with DU-145 prostate was 4.63 µM; in the assay on HCT-116 colon it was over 25 µM; in the assay with HOP-92 NSCLC, over 25 µM; with K-562 leukemia, over 25 µM; with MALME-3M melanoma it was over 25 µM; in the assay on RPMI-8226 leukemia it was over 25 µM. For the same molecule, the TGI in the assay with SK-MEL-5 melanoma, in the assay on SN12C renal and in the assay with UO-31 renal was over 25 µM each time.
In the case of `COc1ccc2c(c1)OC13Oc4cc(OC)ccc4C=C1CCCC3=C2`, the GI50 is over 100 µM in the assay on DU-145 prostate; 4.46 µM with HOP-92 NSCLC; over 100 µM in the assay on K-562 leukemia; over 100 µM with MALME-3M melanoma; 6.12 µM in the assay with RPMI-8226 leukemia; 13.6 µM with SK-MEL-5 melanoma. For the same molecule, the GI50 in the assay on SK-OV-3 ovarian and in the assay with SN12C renal was over 100 µM in each case. Also, the TGI in the assay on DU-145 prostate, in the assay on HOP-92 NSCLC, in the assay with K-562 leukemia, in the assay on MALME-3M melanoma, with RPMI-8226 leukemia and in the assay with SK-MEL-5 melanoma was over 100 µM throughout. For the same molecule, the TGI with SK-OV-3 ovarian and in the assay with SN12C renal was over 100 µM each time.
In the case of `CCOC(=O)C12CC1(C(=O)OCC)C1CCC2C1` (stereo not drawn), the TGI in the assay with HCT-116 colon is over 100 µM; with HOP-92 NSCLC, 95.2 µM; in the assay with K-562 leukemia, over 100 µM; in the assay with MALME-3M melanoma it was over 100 µM; in the assay with RPMI-8226 leukemia, over 100 µM; in the assay with SK-MEL-5 melanoma, over 100 µM. In addition, the TGI in the assay on SK-OV-3 ovarian, in the assay on SN12C renal and in the assay on UO-31 renal was over 100 µM throughout.
As for `CCC1(OC(C)=O)C(=O)OCc2c1cc1n(c2=O)Cc2cc3ccccc3nc2-1` (stereo not drawn), the TGI in the assay with HCT-116 colon is over 37.5 µM; in the assay on HOP-92 NSCLC, over 100 µM; with K-562 leukemia it was over 100 µM; with MALME-3M melanoma, over 100 µM; in the assay with RPMI-8226 leukemia, over 100 µM; with SK-MEL-5 melanoma it was 4 µM. Further, the TGI in the assay on SK-OV-3 ovarian was over 69.6 µM; in the assay with SN12C renal it was over 91.9 µM; in the assay with UO-31 renal it was 8.19 µM.
Turning to `COc1ccc2c(c1)CC[C@@H]1C2CC[C@]2(C)C(=O)NC(=O)CC12` (stereo partly drawn), the TGI in the assay with HCT-116 colon, in the assay on HOP-92 NSCLC, in the assay with K-562 leukemia, with MALME-3M melanoma, in the assay on RPMI-8226 leukemia and in the assay with SK-MEL-5 melanoma was over 100 µM each time. Moreover, the TGI with SK-OV-3 ovarian, in the assay on SN12C renal and with UO-31 renal was over 100 µM in each case.
Take `Fc1ccc(-c2ncn(C3CCNCC3)c2-c2ccnc(Oc3cccc(F)c3)n2)cc1`: the GI50 with DU-145 prostate is over 21.3 µM; in the assay on HCT-116 colon, 9.3 µM; in the assay on K-562 leukemia, 6.7 µM; in the assay on MALME-3M melanoma, 6.71 µM; with RPMI-8226 leukemia, 24.6 µM; with SK-MEL-5 melanoma it was 4.04 µM. Further, the results for the GI50 in the assay on SK-OV-3 ovarian, in the assay with SN12C renal and in the assay with UO-31 renal were over 22.1 µM, 19.1 µM and 6.77 µM, respectively. Moreover, the TGI in the assay with DU-145 prostate is over 25 µM; with HCT-116 colon, over 21.4 µM; with K-562 leukemia it was 16.5 µM; in the assay on MALME-3M melanoma it was 16.8 µM; in the assay on RPMI-8226 leukemia, over 25 µM; in the assay on SK-MEL-5 melanoma it was 8.73 µM. The TGI in the assay with SK-OV-3 ovarian, in the assay with SN12C renal and in the assay with UO-31 renal was over 25 µM throughout.
Turning to `CCNCC(O)c1ccc(N)c([N+](=O)[O-])c1` (stereo not drawn), the TGI in the assay with DU-145 prostate, with HCT-116 colon, in the assay with K-562 leukemia, in the assay with RPMI-8226 leukemia, with SK-MEL-5 melanoma and in the assay with SK-OV-3 ovarian was over 100 µM in each case. Moreover, the TGI in the assay on SN12C renal and with UO-31 renal was over 100 µM throughout.

The record behind these values is PubChem BioAssay (NCI).
